Reference: US20030060493A1, “Repinotan kit” (priority 2000, published 2003)

System: stroke or craniocerebral trauma
Assay: Clinical studies in healthy subjects and patients after stroke or craniocerebral trauma
Format: in vivo, human

## O=C1c2ccccc2S(=O)(=O)N1CCCCNCC1CCc2ccccc2O1 (stereo in doubt) [repinotan, 2-[4-({[(2R)-chroman-2-yl]methyl}amino)butyl]-1,2-benzisothiazol-3(2H)-one 1,1-dioxide]
After 3 and 6 months respectively depending on indication
  neurological and functional deficits: possible to improve the neurological and functional deficits
Healthy subjects and patients after a stroke or craniocerebral trauma
  tolerability: good tolerability
Patients who reached blood plasma concentrations of about 5-20 μg/l
  result of treatment versus placebo: markedly better
